From patent US9260413B2, “Inhibitors of catechol O-methyl transferase and their use in the treatment of psychotic disorders” (Merck Sharp & Dohme Corp., priority 2013, dated 2016)
Read-outs that look alike come from different tables or passages of the source.

Target: purified human COMT enzyme of the Val158 variant (membrane-bound MB-COMT) (Homo sapiens (Human), UniProt P21964)
Test: Esculetin or Fluorescence Polarization assay (MB-COMT)
Format: biochemical
Description: Assays utilized purified human COMT enzyme of the Val158 variant (membrane-bound MB-COMT or soluble S-COMT) containing a C-terminal 6 or 10-histidine tag.
In a typical experiment the COMT inhibitory activity of the compounds of the present invention was determined in accordance with the following experimental methods detailed below. The fluorescence assay was based on methylation of a substrate (6,7-dihydroxycoumarin or ‘esculetin’) by COMT to produce a highly fluorescent product (7-hydroxy-6-methoxycoumarin or ‘scopoletin’). The reaction requires the presence of magnesium ions and a methyl donor, in this case S-adenosylmethionine (SAM). […] Recombinant enzyme was diluted in assay buffer (100 mM Na2HPO4 pH 7.4, 1 mM DTT, 0.005% Tween-20) and 35 μL was added to assay wells containing 1 μL of compound. Preincubation of COMT enzyme and compound proceeded for 2 hours at room temperature. Enzyme assays were initiated with 5 uL of a mixture containing 40 μM SAM (USB catalog # US10601), 4 μM esculetin (substrate) and 40 mM MgCl2. The formation of product (seopoletin) was monitored over time by fluorescence (excitation 340 nm, emission 460 nm, no lag, 100 μs integration time, 5 flashes, top read) using a Tecan Safire^2 plate reader. Assays were monitored over time until a signal to background of 4 to 1 was achieved. Titration curves and IC50 values were calculated using standard procedures. […] In some cases, compounds were not preincubated with MB-COMT for 2 hours at room temperature prior to starting the enzyme assays.
To determine IC50 values in the fluorescence polarization assay, solutions of test compounds were prepared and preincubated with COMT enzyme as stated above. […] After 25 minutes incubation at room temperature, reactions were quenched with 5 μL 250 mM EDTA, […]. To quenched reactions, 20 μL of a preformed complex containing S-adenosyl-L-cysteine (SAC) TAMRA tracer (2 mM from Ana spec diluted 1:80,000) and a 1:20 dilution of anti-S-adenosyl-L-homocysteine antibody (mouse monoclonal from Abbott Homocysteine detection kit, catalog #7D29-20) was prepared in assay buffer 11 (Na2HPO4 pH 7.2). Prior to combining with quenched enzyme assays, the SAH antibody/SAC TAMRA tracer complex was preformed at room temperature for 30 minutes while protected from light. Therefore, the final concentration of the SAH antibody/SAC TAMRA mix was 1:60 and 1:240,000, respectively. […] Titration curves and IC50 values were calculated using standard protocols.

[1] = Esculetin or Fluorescence Polarization assay, Val158 variant

Structure (SMILES) | IC50 [1] | IC50
O=c1[nH]c(-c2cccc(C#Cc3ccccc3)c2)ncc1O [Example 8] | 590 nM | 
O=c1[nH]c(-c2ccc(C(F)(F)F)cc2)ncc1O [Example 6, 5-Hydroxy-2-(4-trifluoromethyl-phenyl)-3H-pyrimidin-4-one] |  | 210 nM
COc1ccc(Oc2cccc(-c3ncc(O)c(=O)n3C)c2)cc1 [Example 5, 5-hydroxy-2-[3-(4-methoxyphenoxy)phenyl]-3-methylpyrimidin-4(3H)-one] |  | 93 nM
Cn1c(-c2ccc(Cl)c(C(F)(F)F)c2)ncc(O)c1=O [Example 1, 2-[4-chloro-3-(trifluoromethyl)phenyl]-5-hydroxy-3-methylpyrimidin-4(3H)-one] | 180 nM | 
